The assay deals with T1, GST-RIPK1 (recombinant GST-RIPK1 kinase domain (residues 1-327)) (Homo sapiens, UniProt Q13546).
T1 construct: recombinant GST-RIPK1 kinase domain (residues 1-327) enzyme produced from baculovirus-transfected Sf21 cells; host or cells: baculovirus-transfected Sf21 insect cells
T1 sequence (Q13546 1-327): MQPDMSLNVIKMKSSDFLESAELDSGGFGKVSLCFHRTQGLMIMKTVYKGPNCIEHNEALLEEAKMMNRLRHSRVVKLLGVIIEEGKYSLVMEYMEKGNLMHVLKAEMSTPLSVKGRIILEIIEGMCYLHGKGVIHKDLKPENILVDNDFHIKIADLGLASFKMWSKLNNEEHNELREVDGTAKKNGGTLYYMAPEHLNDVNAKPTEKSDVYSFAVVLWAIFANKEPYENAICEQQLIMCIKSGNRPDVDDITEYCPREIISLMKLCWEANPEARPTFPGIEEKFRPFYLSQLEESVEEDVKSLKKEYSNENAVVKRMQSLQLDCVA
In words: RIPK1-ADP-Glo Enzymatic Assay. The class given is biochemical. The settings on record: ten-point titration, top compound concentration of 100000 nM; 25 nM GST-RIPK1, 300 μM ATP, 3 μM dephosphorylated-MBP; 30 min pre-incubation, 150 min reaction. Here is the method:
RIPK1-ADP-Glo Enzymatic Assay
The enzymatic activity of RIPK1 is measured using an assay derived from ADP-Glo kit (TMPromega), which provides a luminescent-based ADP detection system. Specifically, the ADP generated by RIPK1 kinase is proportionally detected as luminescent signals in a homogenous fashion. In this context, the assessment of the inhibitory effect of small molecules (EC50) is measured by the effectiveness of the compounds to inhibit the ATP to ADP conversion by RIPK1.
In this assay, the potency (EC50) of each compound was determined from a ten-point (1:3 serial dilution; top compound concentration of 100000 nM) titration curve using the following outlined procedure. To each well of a white ProxiPlus 384 well-plate, 30 nL of compound (1% DMSO in final assay volume of 3 μL) was dispensed, followed by the addition of 2 μL of 1× assay buffer (25 mM Hepes 7.3, 20 mM MgCl2, 50 mM NaCl, 1 mM DTT, 0.005% Tween20, and 0.02% BSA) containing 37.5 nM of GST-RIPK1 (recombinant GST-RIPK1 kinase domain (residues 1-327) enzyme produced from baculovirus-transfected Sf21 cells: MW=62 kDa). Plates were placed in an ambient temperature humidified chamber for a 30 minutes pre-incubation with compound. Subsequently, each reaction was initiated by the addition of 1 μL 1× assay buffer containing 900 μM ATP and 3 μM dephosphorylated-MBP substrate. The final reaction in each well of 3 μL consists of 25 nM of GST-RIPK1, 300 μM ATP, and 3 μM dephosphorylated-MBP. Kinase reactions were allowed to proceed for 150 minutes prior to adding ADP-Glo reagents per Promega's outlined kit protocol. Dose-response curves were generated by plotting percent effect (% product conversion; Y-axis) vs. Log 10 compound concentrations (X-axis). EC50 values were calculated using a non-linear regression, four-parameters sigmoidal dose-response model.

The term EC50 denotes the concentration that produces a half-maximal response. On to `O=C1N2[C@@H](CC[C@H]2c2cc(F)cc(F)c2)OC12CC(Oc1ccnc3c(F)cnn13)C2` (single isomer, unassigned) [Example 9.4], for which the EC50 came out at 105 nM. The figure for `O=C1N2[C@@H](CC[C@H]2c2cc(F)cc(F)c2)OC12CC(Oc1ccnc3c(F)cnn13)C2` (single isomer, unassigned) [Example 9.5] is 328 nM; for `Cc1cn(-c2cc(OC3CC4(C3)O[C@@H]3CC[C@@H](c5cc(F)cc(F)c5)N3C4=O)ncn2)cn1` (single isomer, unassigned) [Example 9.9] it is 475 nM. As to `O=C1N2[C@@H](CC[C@H]2c2cc(F)cc(F)c2)OC12CC(Oc1ccc(F)cn1)C2` (single isomer, unassigned) [Example 9.35], the EC50 stood at 64 nM.

`N#Cc1cc(OC2CC3(C2)O[C@@H]2CC[C@@H](c4cccc(F)c4F)N2C3=O)ncn1` (single isomer, unassigned) [Example 9.40, 6-{[(5′S,7a′R)-5′-(2,3-difluorophenyl)-3′-oxotetrahydro-3′H-spiro[cyclobutane-1,2′-pyrrolo[2,1-b][1,3]oxazol]-3-yl]oxy}pyrimidine-4-carbonitrile]: the EC50 came to 474 nM. Take `N#Cc1cc(OC2CC3(C2)O[C@@H]2CC[C@@H](c4cccc(F)c4F)N2C3=O)ncn1` (single isomer, unassigned) [Example 9.41, 6-{[(5′S,7a′R)-5′-(2,3-difluorophenyl)-3′-oxotetrahydro-3′H-spiro[cyclobutane-1,2′-pyrrolo[2,1-b][1,3]oxazol]-3-yl]oxy}pyrimidine-4-carbonitrile]: the EC50 amounted to 14 nM. Next, `CC(O[C@H]1C[C@@]2(C1)O[C@@H]1CC[C@@H](c3cc(F)cc(F)c3)N1C2=O)c1ccc(F)cn1` (single isomer, unassigned) [Example 12.1, (1R,3R,5′S,7a′R)-5′-(3,5-difluorophenyl)-3-((R or S)-1-(5-fluoropyridin-2-yl)ethoxy)tetrahydro-3′H-spiro[cyclobutane-1,2′-pyrrolo[2,1-b]oxazol]-3′-one]: 390 nM. Next, `C[C@@H](OC1CC2(C1)O[C@@H]1CC[C@@H](c3cc(F)cc(F)c3)N1C2=O)c1ccc(F)cn1` (single isomer, unassigned) [Example 12.2, (1R,3R,5′S,7a′R)-5′-(3,5-difluorophenyl)-3-((S or R)-1-(5-fluoropyridin-2-yl)ethoxy)tetrahydro-3′H-spiro[cyclobutene-1,2′-pyrrolo[2,1-b]oxazol]-3′-one]: 155 nM; `CC(OC1CC2(C1)O[C@@H]1CC[C@@H](c3cc(F)cc(F)c3)N1C2=O)c1ncccc1F` (single isomer, unassigned) [Example 12.3, (1R or S,3R or S,5′S,7a′R)-5′-(3,5-difluorophenyl)-3-((R or S)-1-(3-fluoropyridin-2-yl)ethoxy)tetrahydro-3′H-spiro[cyclobutane-1,2′-pyrrolo[2,1-b]oxazol]-3′-one]: 239 nM; `CC(OC1CC2(C1)O[C@@H]1CC[C@@H](c3cc(F)cc(F)c3)N1C2=O)c1ncccc1F` (single isomer, unassigned) [Example 12.4, (1S or R,3S or R,5′S,7a′R)-5′-(3,5-difluorophenyl)-3-((S or R)-1-(3-fluoropyridin-2-yl)ethoxy)tetrahydro-3′H-spiro[cyclobutane-1,2′-pyrrolo[2,1-b]oxazol]-3′-one]: 329 nM.

On to `CC(OC1CC2(C1)O[C@@H]1CC[C@@H](c3cc(F)cc(F)c3)N1C2=O)c1ncccc1F` (single isomer, unassigned) [Example 12.5, (1R or S,3S or r,5′S,7a′R)-5′-(3,5-difluorophenyl)-3-((S or R)-1-(3-fluoropyridin-2-yl)ethoxy)tetrahydro-3′H-spiro[cyclobutane-1,2′-pyrrolo[2,1-b]oxazol]-3′-one], for which the EC50 was determined as 305 nM. The figure for `CC(OC1CC2(C1)O[C@@H]1CC[C@@H](c3cc(F)cc(F)c3)N1C2=O)c1ccccc1` (single isomer, unassigned) [Example 15.1, ((1S or R),3R,5′S,7a′R)-5′-(3,5-difluorophenyl)-3-((S or R)-1-phenylethoxy)tetrahydro-3′H-spiro[cyclobutane-1,2′-pyrrolo[2,1-b]oxazol]-3′-one] is 284 nM; for `CC(OC1CC2(C1)OC1CCC(c3cc(F)cc(F)c3)N1C2=O)c1ccccc1` (single isomer, unassigned) [Example 15.2, ((1R or S),3R,5′S,7a′R)-5′-(3,5-difluorophenyl)-3-((S or R)-1-phenylethoxy)tetrahydro-3′H-spiro[cyclobutane-1,2′-pyrrolo[2,1-b]oxazol]-3′-one] it is 70 nM; for `CC(OC1CC2(C1)OC1CCC(c3cc(F)cc(F)c3)N1C2=O)c1ccccc1` (single isomer, unassigned) [Example 15.3, ((1S or R),3R,5′S,7a′R)-5′-(3,5-difluorophenyl)-3-((R or S)-1-phenylethoxy)tetrahydro-3′H-spiro[cyclobutane-1,2′-pyrrolo[2,1-b]oxazol]-3′-one] it is 26 nM. In the case of `CC(OC1CC2(C1)OC1CCC(c3cc(F)cc(F)c3)N1C2=O)c1ccccc1` (single isomer, unassigned) [Example 15.4, ((1R or S),3R,5′S,7a′R)-5′-(3,5-difluorophenyl)-3-((R or S)-1-phenylethoxy)tetrahydro-3′H-spiro[cyclobutane-1,2′-pyrrolo[2,1-b]oxazol]-3′-one], the EC50 stood at 19 nM. In the case of `O=C1N2[C@@H](CC[C@H]2c2cc(F)cc(F)c2)OC12CC(Oc1ccccc1)C2` (single isomer, unassigned) [Example 16.1, ((1s or r),3R,5′S,7a′R)-5′-(3,5-difluorophenyl)-3-phenoxytetrahydro-3′H-spiro[cyclobutane-1,2′-pyrrolo[2,1-b]oxazol]-3′-one], the EC50 worked out at 30 nM. In the case of `O=C1N2[C@@H](CC[C@H]2c2cc(F)cc(F)c2)OC12CC(Oc1ccccc1)C2` (single isomer, unassigned) [Example 16.2, ((1r or s),3R,5′S,7a′R)-5′-(3,5-difluorophenyl)-3-phenoxytetrahydro-3′H-spiro[cyclobutane-1,2′-pyrrolo[2,1-b]oxazol]-3′-one], the EC50 was found to be 29 nM. As for `O=C1N2[C@@H](CC[C@H]2c2cncc(F)c2)OC12CCC(Oc1ccccc1)CC2` (single isomer, unassigned) [Example 16.3, (1r or s),(5′S,7a′R)-5′-(5-fluoropyridin-3-yl)-4-phenoxytetrahydro-3′H-spiro[cyclohexane-1,2′-pyrrolo[2,1-b]oxazol]-3′-one], the EC50 came to 62 nM. As for `O=C1N2[C@@H](CC[C@H]2c2cncc(F)c2)OC12CCC(Oc1ccccc1)CC2` (single isomer, unassigned) [Example 16.4, (1s or r), (5′S,7a′R)-5′-(5-fluoropyridin-3-yl)-4-phenoxytetrahydro-3′H-spiro[cyclohexane-1,2′-pyrrolo[2,1-b]oxazol]-3′-one], the EC50 was 476 nM.

For `N#Cc1cc(OC2CC3(C2)O[C@@H]2CC[C@@H](c4cc(F)cc(F)c4)N2C3=O)ncc1F` (single isomer, unassigned) [Example 17.1, 2-((((Is or r),3S,5′S,7a′R)-5′-(3,5-difluorophenyl)-3′-oxotetrahydro-3′H-spiro[cyclobutane-1,2′-pyrrolo[2,1-b]oxazol]-3-yl)oxy)-5-fluoroisonicotinonitrile], the EC50 is 86 nM.

For the compound `N#Cc1cc(OC2CC3(C2)O[C@@H]2CC[C@@H](c4cc(F)cc(F)c4)N2C3=O)ncc1F` (single isomer, unassigned) [Example 17.2, 2-((((1r or s),3S,5′S,7a′R)-5′-(3,5-difluorophenyl)-3′-oxotetrahydro-3′H-spiro[cyclobutane-1,2′-pyrrolo[2,1-b]oxazol]-3-yl)oxy)-5-fluoroisonicotinonitrile], the EC50 was determined as 227 nM.

Turning to `N#Cc1ccc(COC2CC3(C2)O[C@@H]2CC[C@@H](c4cnccn4)N2C3=O)cc1` (single isomer, unassigned) [Example 22.2, 4-((((5′S,7a′R)-3′-oxo-5′-(pyrazin-2-yl)tetrahydro-3′H-spiro[cyclobutane-1,2′-pyrrolo[2,1-b]oxazol]-3-yl)oxy)methyl)benzonitrile], the EC50 came out at 27 nM.

The values above are taken from patent publication US20250154173A1 (Merck Sharp & Dohme LLC, priority 2023, published 2025).
